{"source": "patent US20080227766A1", "about": "“Synergistic, Silver-Containing Biocide Composition” (THOR GMBH, priority 2005, published 2008)", "key": {"[1]": {"system": "Staphylococcus aureus (ATCC 6538)", "assay": "MIC and synergy index (Kull) in Müller-Hinton broth", "format": "cell-based", "procedure": "(§1) The synergism of a combination of silver with 1,2-benzisothiazolin-3-one (BIT) was tested. Silver was used in the form of silver nitrate. […] The test organism used was the gram-negative bacterium Pseudomonas aeruginosa (ATCC 9027). For the test, aqueous mixtures with different concentrations of silver nitrate and BIT were prepared and were tested for their activity on Pseudomonas aeruginosa. The aqueous mixtures further included a Müller-Hinton broth (commercial product “Merck Nr. 10393”) as nutrient medium. The cell density of Pseudomonas aeruginosa was 10^6 microbes/ml.\n[…] Each sample was incubated at 120 rpm on an incubation shaker. […] Growth was shown through a clouding of the nutrient medium. In this way, the minimum inhibitory concentrations (MICs) of the two actives, individually and in combination, were ascertained. The MIC is the concentration at which there is no longer any clouding of the nutrient medium.\n(§2) The synergism arising was represented numerically by calculation of the synergy index (SI). The calculation was made in accordance with the commonplace method of F. C. Kull et al., Applied Microbiology, vol. 9 (1961), p. 538. There the SI is calculated according to the following formula:\nsynergy index SI=Qa/QA+Qb/QB.\nWhen this formula is applied to the biocide system BIT+Ag under test here, the parameters in the formula are defined as follows: • Qa=concentration of BIT in the biocide mixture of BIT+Ag • QA=concentration of BIT as a single biocide • Qb=concentration of Ag in the biocide mixture of BIT+Ag • QB=concentration of Ag as a single biocide\nIf the synergy index has a value of more than 1, this means that antagonism is present. If the synergy index adopts a value of 1, this means that the two biocides have an additive effect.\nThe experiment from example 2 was repeated in the same way but using the gram-positive test organism Staphylococcus aureus (ATCC 6538) instead of Pseudomonas aeruginosa.\nExample 3 was repeated in the same way, but with N-methyl-1,2-benzisothiazolin-3-one (MBIT) as the biocidal component.\nExample 3 was repeated, but using N-butyl-1,2-benzisothiazolin-3-one (BBIT) as the biocidal component."}, "[2]": {"system": "Pseudomonas aeruginosa (ATCC 9027)", "assay": "MIC and synergy index (Kull) in Müller-Hinton broth", "format": "cell-based", "details": "72 h/25° C.", "procedure": "as §1\nThe incubation time was 72 h at 25° C. Each sample was incubated at 120 rpm on an incubation shaker. After 72 h the samples were inspected for growth of Pseudomonas aeruginosa. Growth was shown through a clouding of the nutrient medium. In this way, the minimum inhibitory concentrations (MICs) of the two actives, individually and in combination, were ascertained. The MIC is the concentration at which there is no longer any clouding of the nutrient medium.\nas §2\nsynergy index SI=Qa/QA+Qb/QB. […]"}}, "data": [{"smiles": "[Ag]", "note": "[Ag, silver]", "values": [{"measurement": "MIC at Ag concentration Qb", "setting": "[1]; 72 h/25° C., Ag in mixture BIT + Ag (or Ag alone)", "result": 19.1, "unit": "ppm"}, {"measurement": "MIC at Ag concentration Qb", "setting": "[1]; 96 h/25° C., Ag in mixture BBIT + Ag (or Ag alone)", "result": 25.4, "unit": "ppm"}, {"measurement": "MIC at Ag concentration Qb", "setting": "[1]; 96 h/25° C., Ag in mixture MBIT + Ag (or Ag alone)", "result": 27, "unit": "ppm"}, {"measurement": "MIC at Ag concentration Qb", "setting": "[2]; Ag (from silver nitrate) in mixture BIT + Ag (or Ag alone)", "result": 25.4, "unit": "ppm"}]}, {"smiles": "CCCCn1sc2ccccc2c1=O", "note": "[BBIT, N-butyl-1,2-benzisothiazolin-3-one]", "values": [{"measurement": "MIC at BBIT concentration Qa", "setting": "[1]; 96 h/25° C., BBIT in mixture BBIT + Ag (or BBIT alone)", "result": 20, "unit": "ppm"}]}, {"smiles": "O=c1[nH]sc2ccccc12", "note": "[BIT, 1,2-benzisothiazolin-3-one]", "values": [{"measurement": "MIC at BIT concentration Qa", "setting": "[1]; 72 h/25° C., BIT in mixture BIT + Ag (or BIT alone)", "result": 20, "unit": "ppm"}, {"measurement": "MIC at BIT concentration Qa", "setting": "[2]; BIT in mixture BIT + Ag (or BIT alone)", "result": 40, "unit": "ppm"}]}, {"smiles": "Cn1sc2ccccc2c1=O", "note": "[MBIT, N-methyl-1,2-benzisothiazolin-3-one]", "values": [{"measurement": "MIC at MBIT concentration Qa", "setting": "[1]; 96 h/25° C., MBIT in mixture MBIT + Ag (or MBIT alone)", "result": 20, "unit": "ppm"}]}]}
